This is an account of results in patent EP0989131B1, “THIENOTRIAZOLODIAZEPINE COMPOUNDS AND MEDICINAL USES THEREOF” (priority 1996, dated 1998).

Like-named read-outs stand apart in the source and are kept apart here.

Data set [1] relates to CD11b expression of human histiocytic leukemia cell line U937. Description: Effect on CD11b expression of human histiocytic leukemia cell line U937 (cell ELISA). The conditions noted are these: U937 cells; for IC50: PDB 10 ng/ml, cultured 3 days, read-out: Inhibitory effect on CD11b expression (IC50). The data set is classed as cell-based. Here is the method:
Effect on the expression of CD11b antigen, which constitutes the α chain of Mac-1, which is one of the adhesion molecules expressing on the surface of leukocytic cells, was investigated. U937 cells were suspended in RPMI1640 medium containing 20% fetal calf serum, plated with phorbol 12,13-dibutyrate (PDB, 10 ng/ml) and the test compound into 96-well filtration plates (30000 cells/well), and cultured for 3 days at 37°C in 5% CO2. After washing the cells once with RPMI1640 medium, rat anti-human CD11b monoclonal antibody (2 µg/ml) was added and the plates were stood for 1 hr under ice-cooling. The cells were washed twice and peroxidase-conjugated anti-rat immunoglobulin antibody (1 µg/ml) was added. The cells were stood for 1 hr under ice-cooling. The cells were washed 3 times and peroxidase substrate (o-phenylenediamine) for coloring was added. The plates were stood for 15 min at room temperature and absorbance at 490 nm was measured with a 96-well microplate reader, which was used as an indicator of CD 11b antigen expression.
A general note: ELISA stands for enzyme-linked immunosorbent assay.

Data set [2] deals with VCAM-1 expression in human umbilical vein-derived endothelial cells (HUVEC). The data set can be described thus: Inhibitory effect on TNF alpha-induced VCAM-1 expression in HUVEC (cell ELISA). It counts as cell-based. Conditions: for IC50: tumour necrosis factor α 20 U/ml, 5 hr. How it is done: (§1) HUVEC was suspended in 199 medium containing 20% fetal calf serum, 20 µg/ml endothelial cell growth factor derived from bovine brain, and 100 µg/ml heparin, plated into 96-well microculture plates coated with collagen, and cultured at 37°C in 5% CO2. When cells grew to confluence, the cells received tumour necrosis factor α (20 U/ml for VCAM-1 expression induction, 100 U/ml for E-selectin expression induction) and the test compound, which was followed by further culture for 5 hr. The cells were washed once with 199 medium and mouse anti-human VCAM-1 monoclonal antibody (2 µg/ml) or rat anti-human E-selectin monocolnal antibody (2 µg/ml) was added. The cells were stood for 1 hr at room temperature. The cells were washed twice and peroxidase-conjugated anti-mouse immunoglobulin antibody or anti-rat immunoglobulin antibody was added. The cells were stood for 1 hr at room temperature. The cells were washed 3 times and 2,2'-azino-bis(3-ethylbenzothiazoline-6-sulfonic acid) as a peroxidase substrate was added. The plates were stood for 15 min at room temperature and absorbance at 405 n/490 nm was measured with a 96-well microplate reader, which was used as an indicator of VCAM-1 or E-selectin expression.

Data set [3] relates to E-selectin expression in human umbilical vein-derived endothelial cells (HUVEC). Description: Inhibitory effect on TNF alpha-induced E-selectin expression in HUVEC (cell ELISA). The data set is classed as cell-based. The conditions noted are these: for IC50: tumour necrosis factor α 100 U/ml, 5 hr. Here is the method: as §1
In data set [4] the test system is trinitrobenzenesulfonic acid (TNBS)-induced colitis. Description: Effect on trinitrobenzenesulfonic acid (TNBS)-induced colitis in rat. It counts as in vivo, SD rats. The conditions noted are these: TNBS sensitized rats, 5 days. Here is the method:
Colitis was induced by intraintestinal injection of TNBS solution (60 mg/ml in 50% EtOH, 500 µl) to SD rats. Seven days later, rats were subjected to autopsy and large intestine (8 cm from anus) was cut out and weighed. Myeloperoxidase (MPO) activity in the intestinal tissue was measured and taken as an indicator of infiltrated leukocyte count. That is, the intestine was homogenized and a cycle of freeze-thawing of the tissue was repeated 3 times. The supernatant obtained by centrifugation was assayed for MPO activity using peroxidase substrate (o-phenylenediamine). MPO unit in the supernatant was calculated with the commercial MPO as a standard. The increase in intestinal weight and increase in MPO activity determined as above were taken as indicators of the degree of colitis. Test compound was suspended in 0.5% hydroxypropylmethylcellulose (Metolose)solution and administered p.o. ([…]) or intraintestinally (0.2 ml/rat) for 5 days beginning on the day of TNBS injection.

Data set [5] concerns carrageenan-induced colitis. Description: Effect on carrageenan-induced colitis in rabbits. The data set is classed as in vivo. The conditions noted are these: 10 mg/kg consecutively from day 0 for 8 weeks, autopsy day 56, control 10.9 ± 2.0, P<0.05 (Mann-Whitney's U-test). Here is the method:
A mixed emulsion of 1% λ-degraded carrageenan and Freund's complete adjuvant was subcutaneously injected to rabbits for sensitization. Starting from the 7th day (day 0) from sensitization, λ-degraded carrageenan (250-1000 mg/day/rabbit) was forcibly administered orally for 8 weeks to induce colitis. The next day (day 56) of the termination of λ-degraded carrageenan intake, the rabbits were subjected to autopsy and disorder in large intestine was scored using abnormal observation of mucosal epithelium of the tissue sample, level of infiltration of inflammatory cells and the like as indices. The test compounds (10 mg/kg) were consecutively administered from day 0 for 8 weeks.

Data set [6] in a line: Toxicity test, repeated oral administration. The conditions noted are these: female rats, repeated oral administration for 10 days, 300 mg/kg. It counts as in vivo. The text has this:
Compound 2 was repeatedly administered orally to female rats for 10 days.

Regarding `Cc1sc2c(c1C)C(c1ccc(Cl)cc1)=N[C@@H](CC(=O)Nc1ccc(O)cc1)c1nnc(C)n1-2.O.O` [Compound 2, (S)-2-[4-(4-chlorophenyl)-2,3,9-trimethyl-6H-thieno[3,2-f][1,2,4]triazolo[4,3-a][1,4]diazepin-6-yl]-N-(4-hydroxyphenyl)acetamide dihydrate], the half-inhibitory concentration (IC50) is < 30 nM in data set [1] (Homo sapiens, U-937, 72 h); 0.11 µM in data set [2] (Homo sapiens); 0.073 µM in data set [3] (Homo sapiens). Further, the “Intestinal weight (mg, mean ± S.D.)” value was found to be 499.6 ± 71.7 mg in data set [4] (Table 4A, intraintestinal, 0.01 mg/site, P<0.01 (Dunnett's test)); 502.0 ± 51.5 mg in data set [4] (Table 4A, intraintestinal, 0.1 mg/site, P<0.01 (Dunnett's test)); 536.0 ± 62.2 mg in data set [4] (Table 4A, intraintestinal, 1 mg/site, P<0.05 (Dunnett's test)); 699.3 ± 163.7 mg in data set [4] (Table 5A, oral, 0.03 mg/kg, significance none (Dunnett's test)); 468.5 ± 47.6 mg in data set [4] (Table 5A, oral, 1 mg/kg, P<0.01 (Dunnett's test)); 458.0 ± 34.7 mg in data set [4] (Table 5A, oral, 3 mg/kg, P<0.01 (Dunnett's test)). Further, the “MPO activity (U/ml, mean ± S.D.)” value in data set [4] (Table 4B, intraintestinal, 0.01 mg/site, P<0.01 (Mann-Whitney's U-test)) amounted to 0.354 ± 0.081 U/ml; in data set [4] (Table 4B, intraintestinal, 0.1 mg/site, P<0.01 (Mann-Whitney's U-test)), 0.334 ± 0.069 U/ml; in data set [4] (Table 4B, intraintestinal, 1 mg/site, P<0.01 (Mann-Whitney's U-test)) it was 0.345 ± 0.097 U/ml; in data set [4] (Table 5B, oral, 0.3 mg/kg, significance none (Mann-Whitney's U-test)), 1.568 ± 0.538 U/ml; in data set [4] (Table 5B, oral, 1 mg/kg, P<0.05 (Mann-Whitney's U-test)) it was 0.769 ± 0.222 U/ml; in data set [4] (Table 5B, oral, 3 mg/kg, P<0.05 (Mann-Whitney's U-test)), 0.740 ± 0.142 U/ml. The “mean ± S.E. of score (disorder in large intestine)” value in data set [5] stood at 5.3 ± 0.6. In data set [6], the death result is “No case of death was observed”.
With `Cc1sc2c(c1C)C(c1ccc(Cl)cc1)=N[C@@H](CC(=O)Nc1ccc(O)cc1)c1nnc(C)n1-2` [Compound 1, (S)-2-[4-(4-chlorophenyl)-2,3,9-trimethyl-6H-thieno[3,2-f][1,2,4]triazolo[4,3-a][1,4]diazepin-6-yl]-N-(4-hydroxyphenyl)acetamide], the “Intestinal weight (mg, mean ± S.D.)” value in data set [4] (Table 3A, intraintestinal, 0.01 mg/site, P<0.01 (Dunnett's test)) stood at 501.5 ± 78.3 mg; in data set [4] (Table 3A, intraintestinal, 0.1 mg/site, P<0.01 (Dunnett's test)), 472.0 ± 43.4 mg; in data set [4] (Table 3A, intraintestinal, 1 mg/site, P<0.01 (Dunnett's test)), 460.8 ± 52.3 mg. Moreover, the “MPO activity (U/ml, mean ± S.D.)” value in data set [4] (Table 3B, intraintestinal, 0.01 mg/site, P<0.05 (Mann-Whitney's U-test)) is on record as 0.716±0.158 U/ml; in data set [4] (Table 3B, intraintestinal, 0.1 mg/site, P<0.05 (Mann-Whitney's U-test)), 0.654±0.109 U/ml; in data set [4] (Table 3B, intraintestinal, 1 mg/site, P<0.05 (Mann-Whitney's U-test)) it was 0.676±0.172 U/ml.
As to “5-(2-chlorophenyl)-7-(morpholinocarbonylethyl)-10-methyl-3,4-dihydro-2H,7H-cyclopenta[4,5]thieno[3,2-f][1,2,4]triazolo[4,3-a][1,4]diazepine [Comparison Compound]”, the 50% inhibitory concentration (IC50) in data set [1] is > 3000 nM; in data set [2], > 10 µM; in data set [3], > 10 µM. The “activity relative to the activity of Compound 2 (CD11b expression)” value in data set [1] (ratio to Compound 2) is reported as “not more than 1/100”. The “VCAM-1 expression inhibitory effect relative to that of Compound 2” value in data set [2] (ratio to Compound 2) is listed as “not more than 1/90”. The “E-selectin expression inhibitory effect relative to the activity of Compound 2” value in data set [3] (ratio to Compound 2) was “not more than 1/130”.

The IC50 is the concentration that inhibits the measured activity by half.
